Results from paper PMC10779433, “Bidirectional Allosteric Coupling between PIP2 Binding and the Pore of the Oncochannel TRPV6” (International Journal of Molecular Sciences, 2024).
Residues, ends and D or L forms follow the SMILES beside them. *: point of attachment. Palmitoyl = CCCCCCCCCCCCCCCC(=O)*

Experiments:
[1] = tested on: TRPV6 G488R; conditions: ref [62]; cited from earlier work
Description: As mentioned before, the G488R mutation resides within the segment linking the fourth and fifth transmembrane domain of TRPV6. Importantly, different examples exist throughout the entire TRP superfamily, highlighting the importance of the corresponding protein section for a proper channel function, for instance, by serving as a binding site for different agonists or antagonists.

[2] = tested on: TRPV6 K484A; experiment: NFAT screen, TRPV6 K484A; format: cell-based, human; conditions: HEK293 cells; 5 μM cis-22a, 2 h, vs DMSO
Description: N-terminally TagRFP-labeled human TRPV6 (725 aa) was kindly provided by R. Bhardwaj and M. Hediger (University of Bern, Bern, Switzerland). This variant is translated from the first ATG codon and thus deviates from the non-ATG-initiated protein which is expressed in vivo (accession number NM_018646.6) by lacking 40 amino acids of the very N-terminus. For N-terminal labeling with EYFP, TRPV6 was cloned into pEYFP-C1 (Clontech) via EcoRI and SacII restriction sites. […]
After incubation, cover slips were carefully rinsed with phenol red-free DMEM supplemented with the compound and dosage corresponding to the previous incubation, which was then also present during imaging. […] Subcellular NFAT localization of TRPV6 expressing cells was again monitored on an Axiovert 135 inverted microscope (Zeiss, Oberkochen, Germany), as described in more detail before. […] Images were analyzed using Matlab2018a, differentiating between three cell populations based on the ratio of CFP emission intensity originating from the nucleus and the cytosol, similar to Schober et al. (2019).

[3] = tested on: TRPV6 G488R; experiment: Fura-2 Ca2+ imaging, TRPV6 G488R; format: cell-based, human; conditions: HEK293 cells; 20 μM pal-PIP2 peptide; 2 mM Ca2+; Figure 2A
[4] = tested on: TRPV6 W583F; experiment: Whole-cell patch clamp, TRPV6 W583F; format: cell-based, human; conditions: HEK293 cells, 10 μM pal-PIP2 peptide, Figure 5C
Description: N-terminally TagRFP-labeled human TRPV6 (725 aa) was kindly provided by R. Bhardwaj and M. Hediger (University of Bern, Bern, Switzerland). This variant is translated from the first ATG codon and thus deviates from the non-ATG-initiated protein which is expressed in vivo (accession number NM_018646.6) by lacking 40 amino acids of the very N-terminus. For N-terminal labeling with EYFP, TRPV6 was cloned into pEYFP-C1 (Clontech) via EcoRI and SacII restriction sites. Mutations (F468A, R470A, F472A, K484A/Q, G488R, R492A/Q, I575A, G579A, D580A/K, H582A, W583A/F, H587A, R589A, W593A, R632A/Q, R470A, W583F) were introduced using the QuickChange XL site-directed mutagenesis kit (Stratagene, San Diego, CA, USA) and Pfu DNA Polymerase (Promega, Madison, WI, USA). pTagRFP-hTRPV6 I575A was kindly provided by the lab of M. Hediger (University of Bern, Bern, Switzerland). Forward and reverse primers for site-directed mutagenesis were synthesized by Eurofins genomics GmbH (Wien, Vienna, Austria). Intactness of the constructs in terms of sequence was confirmed by sequencing (Microsynth Austria GmbH, Wien, Vienna, Austria; Eurofins genomics GmbH, Wien, Vienna, Austria). […]
Electrophysiological experiments were performed at 20 °C to 24 °C in whole-cell recording configurations of the patch clamp technique. […] The liquid junction potential was determined as 12 mV; the voltages were not adjusted. […]

Row | Structure (SMILES) | sensitivity to cis-22a (in words) [1] | reduction of nuclear NFAT localization [2] | reduction of intracellular Ca2+ level [3] | sensitivity to peptide-based PIP2 sequestration vs WT [4]
1 | Cc1cccc(C2CCC(N3CCN(c4cccnc4)CC3)CC2)c1.O=C(O)C(F)(F)F (stereo not drawn) [cis-22a] | largely insensitive | failed to significantly reduce NFAT nuclear localization | – | –
2 | CCCCCCCCCCCCCCCC(=O)N[C@@H](Cc1c[nH]cn1)C(=O)N[C@@H](CCCNC(=N)N)C(=O)N[C@@H](CCC(N)=O)C(=O)N[C@@H](CCCCN)C(=O)N[C@@H](Cc1c[nH]cn1)C(=O)N[C@@H](Cc1ccccc1)C(=O)N[C@@H](CCC(=O)O)C(=O)N[C@@H](CCCCN)C(=O)N[C@@H](CCCNC(=N)N)C(=O)N[C@@H](CCCNC(=N)N)C(N)=O [pal-PIP2 peptide] (Palmitoyl-HRQKHFEKRR-NH2) | – | – | ~ 2% | not changed compared to the wildtype control
